PubChem BioAssay AID1259407 (Chemical Carcinogenesis Research Information System (CCRIS), 2018)
Calls of active or inactive are those of the source. How the calls were made is not given here.

Test system: CCRIS mutagenicity, Ames/micronucleus/aberration tests
Assay: CCRIS mutagenicity studies
[1] = Test System: AMES SALMONELLA TYPHIMURIUM, Strain/Indicator: TA97, Metabolic Activation: HAMSTER, LIVER, S-9, AROCLOR 1254 (10%), Method: PREINCUBATION
[2] = Test System: AMES SALMONELLA TYPHIMURIUM, Strain/Indicator: TA97, Metabolic Activation: RAT, LIVER, S-9, AROCLOR 1254 (10%), Method: PREINCUBATION
[3] = Test System: AMES SALMONELLA TYPHIMURIUM, Strain/Indicator: TA98, Metabolic Activation: HAMSTER, LIVER, S-9, AROCLOR 1254 (10%), Method: PREINCUBATION
[4] = Test System: AMES SALMONELLA TYPHIMURIUM, Strain/Indicator: TA98, Metabolic Activation: NONE, Method: PREINCUBATION
[5] = Test System: AMES SALMONELLA TYPHIMURIUM, Strain/Indicator: TA98, Metabolic Activation: RAT, LIVER, S-9, AROCLOR 1254 (10%), Method: PREINCUBATION
[6] = Test System: AMES SALMONELLA TYPHIMURIUM, Strain/Indicator: TA100, Metabolic Activation: HAMSTER, LIVER, S-9, AROCLOR 1254 (10%), Method: PREINCUBATION
[7] = Test System: AMES SALMONELLA TYPHIMURIUM, Strain/Indicator: TA100, Metabolic Activation: RAT, LIVER, S-9, AROCLOR 1254 (10%), Method: PREINCUBATION
[8] = Test System: AMES SALMONELLA TYPHIMURIUM, Strain/Indicator: TA1535, Metabolic Activation: HAMSTER, LIVER, S-9, AROCLOR 1254 (10%), Method: PREINCUBATION
[9] = Test System: AMES SALMONELLA TYPHIMURIUM, Strain/Indicator: TA1535, Metabolic Activation: NONE, Method: PREINCUBATION
[10] = Test System: AMES SALMONELLA TYPHIMURIUM, Strain/Indicator: TA1535, Metabolic Activation: RAT, LIVER, S-9, AROCLOR 1254 (10%), Method: PREINCUBATION
[11] = Test System: AMES SALMONELLA TYPHIMURIUM, Strain/Indicator: TA98, Metabolic Activation: NONE, Method: STANDARD PLATE
[12] = Test System: AMES SALMONELLA TYPHIMURIUM, Strain/Indicator: TA98, Metabolic Activation: RAT, LIVER, S-9, AROCLOR 1254, Method: STANDARD PLATE
[13] = Test System: AMES SALMONELLA TYPHIMURIUM, Strain/Indicator: TA100, Metabolic Activation: NONE, Method: STANDARD PLATE
[14] = Test System: AMES SALMONELLA TYPHIMURIUM, Strain/Indicator: TA100, Metabolic Activation: RAT, LIVER, S-9, AROCLOR 1254, Method: STANDARD PLATE
[15] = Test System: AMES SALMONELLA TYPHIMURIUM, Strain/Indicator: TA1535, Metabolic Activation: NONE, Method: STANDARD PLATE

Measured: mutagenic call

CN(C)c1ccc(N(C)C)cc1
inactive: Test System: AMES SALMONELLA TYPHIMURIUM, Strain/Indicator: TA97, Metabolic Activation: RAT, LIVER, S-9, AROCLOR 1254 (30%), Method: PREINCUBATION inactive; negative | [3] inactive; negative | [4] inactive; negative | [5] inactive; negative | Test System: AMES SALMONELLA TYPHIMURIUM, Strain/Indicator: TA98, Metabolic Activation: RAT, LIVER, S-9, AROCLOR 1254 (30%), Method: PREINCUBATION inactive; negative | [8] inactive; negative | Test System: AMES SALMONELLA TYPHIMURIUM, Strain/Indicator: TA1535, Metabolic Activation: HAMSTER, LIVER, S-9, AROCLOR 1254 (30%), Method: PREINCUBATION inactive; negative | [9] inactive; negative | [10] inactive; negative | Test System: AMES SALMONELLA TYPHIMURIUM, Strain/Indicator: TA1535, Metabolic Activation: RAT, LIVER, S-9, AROCLOR 1254 (30%), Method: PREINCUBATION inactive; negative
active: End Point: IN VITRO CHROMOSOMAL ABERRATIONS, Test System: CHINESE HAMSTER LUNG CELLS (CHL), Metabolic Activation: NONE active; positive (structural changes) | End Point: IN VITRO CHROMOSOMAL ABERRATIONS, Test System: CHINESE HAMSTER LUNG CELLS (CHL), Metabolic Activation: RAT, LIVER, S-9, KC-400 active; positive (structural changes) | End Point: IN VITRO CHROMOSOMAL ABERRATIONS, Test System: CHINESE HAMSTER OVARY CELLS (CHO), Metabolic Activation: NONE active; positive at highest dose | End Point: IN VITRO CHROMOSOMAL ABERRATIONS, Test System: CHINESE HAMSTER OVARY CELLS (CHO), Metabolic Activation: RAT, LIVER, S-9, AROCLOR 1254 active; positive (structural changes) | [1] active; positive | [2] active; positive | Test System: AMES SALMONELLA TYPHIMURIUM, Strain/Indicator: TA98, Metabolic Activation: HAMSTER, LIVER, S-9, AROCLOR 1254 (30%), Method: PREINCUBATION active; positive | [6] active; positive | Test System: AMES SALMONELLA TYPHIMURIUM, Strain/Indicator: TA100, Metabolic Activation: HAMSTER, LIVER, S-9, AROCLOR 1254 (30%), Method: PREINCUBATION active; positive | [7] active; positive | Test System: AMES SALMONELLA TYPHIMURIUM, Strain/Indicator: TA100, Metabolic Activation: RAT, LIVER, S-9, AROCLOR 1254 (30%), Method: PREINCUBATION active; positive

COC(=O)C(=Cc1ccc(Br)o1)[N+](=O)[O-]
inactive: [4] inactive; negative

ClCCCl
active: Test System: AMES SALMONELLA TYPHIMURIUM, Strain/Indicator: TA97, Metabolic Activation: RAT, LIVER, S-9, AROCLOR 1254, Method: STANDARD PLATE active; positive | [12] active; positive | [13] active; positive | [14] active; positive | Test System: AMES SALMONELLA TYPHIMURIUM, Strain/Indicator: TA104, Metabolic Activation: RAT, LIVER, S-9, AROCLOR 1254, Method: STANDARD PLATE active; positive | Test System: AMES SALMONELLA TYPHIMURIUM, Strain/Indicator: TA1530, Metabolic Activation: NONE, Method: SPOT active; positive | [8] active; positive | Test System: AMES SALMONELLA TYPHIMURIUM, Strain/Indicator: TA1535, Metabolic Activation: NONE, Method: SPOT active; positive | [10] active; positive | Test System: AMES SALMONELLA TYPHIMURIUM, Strain/Indicator: TA1535, Metabolic Activation: RAT, LIVER, S-9, Method: STANDARD PLATE active; positive | Test System: AMES SALMONELLA TYPHIMURIUM, Strain/Indicator: TA1535, Metabolic Activation: S-9 MIX, Method: STANDARD PLATE active; positive | Test System: Ames Salmonella typhimurium, Strain/Indicator: TA1535, Metabolic Activation: Rat, Liver, S9, Sodium phenobarbital and 5,6-benzoflavone (10%), Method: Preincubation active; positive
inactive: [1] inactive; negative | Test System: AMES SALMONELLA TYPHIMURIUM, Strain/Indicator: TA97, Metabolic Activation: NONE, Method: PREINCUBATION inactive; negative | Test System: AMES SALMONELLA TYPHIMURIUM, Strain/Indicator: TA97, Metabolic Activation: NONE, Method: STANDARD PLATE inactive; negative | [2] inactive; negative | [3] inactive; negative | [4] inactive; negative | [11] inactive; negative | [5] inactive; negative | [6] inactive; negative | Test System: AMES SALMONELLA TYPHIMURIUM, Strain/Indicator: TA100, Metabolic Activation: NONE, Method: PREINCUBATION inactive; negative | [7] inactive; negative | Test System: AMES SALMONELLA TYPHIMURIUM, Strain/Indicator: TA104, Metabolic Activation: NONE, Method: STANDARD PLATE inactive; negative | [9] inactive; negative | [15] inactive; negative | Test System: Ames Salmonella typhimurium, Strain/Indicator: TA98, Metabolic Activation: None, Method: Preincubation inactive; negative | Test System: Ames Salmonella typhimurium, Strain/Indicator: TA98, Metabolic Activation: Rat, Liver, S9, Sodium phenobarbital and 5,6-benzoflavone (10%), Method: Preincubation inactive; negative | Test System: Ames Salmonella typhimurium, Strain/Indicator: TA100, Metabolic Activation: None, Method: Preincubation inactive; negative | Test System: Ames Salmonella typhimurium, Strain/Indicator: TA100, Metabolic Activation: Rat, Liver, S9, Sodium phenobarbital and 5,6-benzoflavone (10%), Method: Preincubation inactive; negative | Test System: Ames Salmonella typhimurium, Strain/Indicator: TA1537, Metabolic Activation: None, Method: Preincubation inactive; negative | Test System: Ames Salmonella typhimurium, Strain/Indicator: TA1537, Metabolic Activation: Rat, Liver, S9, Sodium phenobarbital and 5,6-benzoflavone (10%), Method: Preincubation inactive; negative | Test System: E. coli, Strain/Indicator: WP2uvrA/pKM101, Metabolic Activation: None, Method: Preincubation inactive; negative | Test System: E. coli, Strain/Indicator: WP2uvrA/pKM101, Metabolic Activation: Rat, Liver, S9, Sodium phenobarbital and 5,6-benzoflavone (10%), Method: Preincubation inactive; negative

CSCCCCC(=NOS(=O)(=O)O)S[C@@H]1O[C@H](CO)[C@@H](O)[C@H](O)[C@H]1O
inactive: End Point: IN VITRO MICRONUCLEUS, Test System: HUMAN T-LYMPHOCYTES, Metabolic Activation: NONE inactive; negative

Cc1cc(O)c2c(O)c3c(O)cccc3cc2c1
inactive: [11] inactive; negative | [12] inactive; negative | [13] inactive; negative | [14] inactive; negative | [15] inactive; negative | Test System: AMES SALMONELLA TYPHIMURIUM, Strain/Indicator: TA1535, Metabolic Activation: RAT, LIVER, S-9, AROCLOR 1254, Method: STANDARD PLATE inactive; negative | Test System: AMES SALMONELLA TYPHIMURIUM, Strain/Indicator: TA1538, Metabolic Activation: NONE, Method: STANDARD PLATE inactive; negative | Test System: AMES SALMONELLA TYPHIMURIUM, Strain/Indicator: TA1538, Metabolic Activation: RAT, LIVER, S-9, AROCLOR 1254, Method: STANDARD PLATE inactive; negative
active: Test System: AMES SALMONELLA TYPHIMURIUM, Strain/Indicator: TA1537, Metabolic Activation: RAT, LIVER, S-9, AROCLOR 1254, Method: STANDARD PLATE active; positive
